Assay results: ChEMBL document CHEMBL1145740, “Novel alpha-amino-acid phenolic ester derivatives with intravenous anaesthetic activity” (Bioorg Med Chem Lett, 2003)

Tests used:
[1] = molecular target: GABA-A receptor; anion channel; experiment: In vitro inhibition of [35S]TBPS binding to GABA-A receptor of rat whole brain membranes; type: cell membranes
[2] = system: Mus musculus; experiment: Intravenous hypnotic dose that caused a loss of righting reflex for a minimum period of 30s in 50% of treated mice determined by probit analysis.; type: functional

IC50 [1] [µM] | Structure (SMILES) | HD50 [2] [µM/kg]
6.2 | COc1cc(C)cc(OC)c1OC(=O)C(CCS(C)(=O)=O)N1C=CCCC1 (stereo not given) | 39.3
 | COc1cccc(OC)c1OC(=O)C(CCS(C)(=O)=O)N1CCOCC1 (stereo not given) | 99
4.2 | COC(=O)CC(C(=O)Oc1c(OC)cccc1OC)N1CCCCCC1 (stereo not given) | 22.9
14.7 | COC(=O)CC(C(=O)Oc1c(OC)cc(C)cc1OC)N1CCCCC1 (stereo not given) | 48
 | COC(=O)CC(C(=O)Oc1c(OC)cc(C)cc1OC)N1CCOCC1 (stereo not given) | 46
11.7 | COC(=O)CC(C(=O)Oc1c(OC)cccc1OC)N1CCCCC1 (stereo not given) | 26.4
 | COc1cc(C)cc(OC)c1OC(=O)C(CCSC)N1CCOCC1 (stereo not given) | 34.8
 | COCCN(CCOC)C(CCS(C)(=O)=O)C(=O)Oc1c(OC)cccc1OC (stereo not given) | >106
 | COCCN(CCOC)C(CCS(C)(=O)=O)C(=O)Oc1c(OC)cc(C)cc1OC (stereo not given) | 77
 | COC(=O)CC(C(=O)Oc1c(OC)cc(C)cc1OC)N1CCCCCC1 (stereo not given) | 26
 | COC(=O)CC(C(=O)Oc1c(OC)cccc1OC)N1CCOCC1 (stereo not given) | 79
4 | COc1cccc(OC)c1OC(=O)C(CCSC)N1CCCCC1 (stereo not given) | <25
 | COC(=O)CC(C(=O)Oc1c(OC)cccc1OC)N1CCCC1 (stereo not given) | 77
 | COC(=O)CC(C(=O)Oc1c(OC)cc(C)cc1OC)N1CCCC1 (stereo not given) | 52
 | COc1cccc(OC)c1OC(=O)C(CC(=O)N1CCCCC1)N1CCCCC1 (stereo not given) | 39
 | COc1cc(C)cc(OC)c1OC(=O)C(CC[S+](C)[O-])N1CCCC1 (stereo not given) | 73
 | COc1cccc(OC)c1OC(=O)C(CC(=O)N1CCCC1)N1CCCCCC1 (stereo not given) | 34
 | COc1cc(C)cc(OC)c1OC(=O)C(CC(=O)N1CCOCC1)N1CCOCC1 (stereo not given) | >218
6.9 | COCCN(CCOC)C(CCSC)C(=O)Oc1c(OC)cc(C)cc1OC (stereo not given) | 22.6

IC50 [1] [µM] | Structure (SMILES) | HD50 [2] [µM/kg]
 | COc1cccc(OC)c1OC(=O)C(CCSC)N1CCOCC1 (stereo not given) | 26.1
2.7 | COc1cc(C)cc(OC)c1OC(=O)C(CCSC)N1CCCC1 (stereo not given) | 31.4
 | COc1cc(C)cc(OC)c1OC(=O)C(CC(=O)N1CCCC1)N1CCCCCC1 (stereo not given) | 67
 | COc1cc(C)cc(OC)c1OC(=O)C(CCS(C)(=O)=O)N1CCOCC1 (stereo not given) | 108
 | COc1cc(C)cc(OC)c1OC(=O)C(CC(=O)N1CCCCC1)N1CCCCC1 (stereo not given) | 37.5
 | CCN(CC)C(=O)CC(C(=O)Oc1c(OC)cc(C)cc1OC)N1CCOCC1 (stereo not given) | 38
 | COc1cccc(OC)c1OC(=O)C(CCSC)N1CCCC1 (stereo not given) | 40
 | COc1cc(C)cc(OC)c1OC(=O)C(CC(=O)N1CCCC1)N1CCCC1 (stereo not given) | 81
 | COc1cc(C)cc(OC)c1OC(=O)C(CC[S+](C)[O-])N1CCOCC1 (stereo not given) | 299
 | COc1cccc(OC)c1OC(=O)C(CCSC)N1CCCCCCC1 (stereo not given) | 35
9.7 | COc1cccc(OC)c1OC(=O)C(CCSC)N1CCCCCC1 (stereo not given) | 18.2
 | COc1cccc(OC)c1OC(=O)C(CC(=O)N1CCCC1)N1CCCC1 (stereo not given) | 102
 | CCN(CC)C(=O)CC(C(=O)Oc1c(OC)cccc1OC)N1CCOCC1 (stereo not given) | 117
 | COc1cccc(OC)c1OC(=O)C(CC(=O)N1CCOCC1)N1CCOCC1 (stereo not given) | >225
 | COCCN(CCOC)C(CC(=O)OC)C(=O)Oc1c(OC)cc(C)cc1OC (stereo not given) | 48
 | COCCN(CCOC)C(CC(=O)OC)C(=O)Oc1c(OC)cccc1OC (stereo not given) | 48
 | CC[C@H](C(=O)Oc1c(OC)cc(C)cc1OC)N(CCOC)CCOC [ORG-24447] | 21.7
 | CC(C)c1cccc(C(C)C)c1O [PROPOFOL] | 68
